Experimental data taken from EPA's ToxValDB 9.5 (doi:10.2903/j.efsa.2017.4903).

Experiments:
Rattus norvegicus = settings: for LOAEL: subchronic, duration: 90 days, clinical chemistry; for NOAEL: reproduction developmental
Apis mellifera = settings: acute, mortality
Colinus virginianus = settings: reproduction developmental
Coturnix japonica = settings: acute; oral; mortality
Danio rerio = settings: chronic; reproduction
Folsomia candida = settings: chronic/long-term; duration: 28 days; mortality
Pontoscolex corethrurus = settings: chronic/long-term
Hypoaspis aculeifer = settings: chronic/long-term; duration: 14 days; reproduction
Pleurozium sp. = settings: acute; duration: 72 hours; other

## Nc1ccc(O)c(Cl)c1 [3-Chloro-4-hydroxyaniline]
Rattus norvegicus
  LOAEL: 10 mg/kg-day

## CC(C)OC(=O)Nc1cccc(Cl)c1 [Chlorpropham]
Apis mellifera; dermal
  LD50: 96.1 µg/piece
Apis mellifera; oral, unspecified
  LD50: 505 µg/piece
Canidae; acute, oral, Beagle, mobility
  NOAEL: 50 mg/kg-day
Canidae; chronic, duration: 60 weeks, oral, diet, Beagle, organ weight
  NOAEL: 5 mg/kg-day
Canidae; short-term, duration: 28 days, Dog Other
  NOAEL: 5 mg/kg-day
Colinus virginianus
  NOAEL: 94.7 mg/kg-day
Coturnix japonica
  LD50: > 2000 mg/kg-day
Danio rerio
  NOEC: 0.32 mg/L
Folsomia candida
  NOEC: 17.2 mg/kg
Pontoscolex corethrurus; growth
  NOEC: 30 mg/kg
Rattus norvegicus; acute, oral, mortality
  LD50: 4200 mg/kg-day
Rattus norvegicus; body weight
  NOAEL: 50 mg/kg-day
Rattus norvegicus; immunology
  NOAEL: 44.5 mg/kg-day

## Nc1cccc(Cl)c1 [3-Chloroaniline]
Folsomia candida
  NOEC: 9.5 mg/kg
Hypoaspis aculeifer
  NOEC: 50 mg/kg
Pleurozium sp.
  NOEC: 1 mg/L
Pontoscolex corethrurus; reproduction
  NOEC: 125 mg/kg
Rattus norvegicus
  LOAEL: 10 mg/kg-day
